Earlier results in patent publication US20150190413A1, “COMPOSITIONS AND METHODS FOR THE TREATMENT OF BLADDER CANCER” (Endo Pharmaceuticals Solutions Inc., priority 2007, published 2015).
Read-outs that look alike come from different tables or passages of the source.

System: epithelium of the bladder
Conditions: rabbit

C[S+](C)[O-] [DMSO, dimethyl sulfoxide]
Effect on epithelium of the bladder (five percent solutions of DMSO in water): sensitive
Effect on bladder cells (one hundred percent DMSO): fixed
Effect on epithelium of the bladder (twenty percent solutions of DMSO in water): loss of epithelial cells
